Assays:
Type in all cases: cell-based
[1] = tested on: anti-GluR3 antibody-evoked currents, mouse cortical neurons in culture; test: Block of anti-GluR3 antibody-evoked whole cell currents; settings: for blockage of anti-GluR3 antibody-evoked currents: CNQX 40 μM, MK-801 10 μM, peptides 0.5 mg/ml incubated with serum or IgG for 15 minutes
[2] = tested on: currents evoked by serum from a Rasmussen's encephalitis patient, fetal mouse cortical neurons; test: Block of whole cell currents evoked by serum from a Rasmussen's encephalitis patient
Protocol: To examine functional consequences of antibody binding to glutamate receptors, electrophysiological methods were used to record whole cell currents from mouse cortical neurons in culture. Neuronal cultures from fetal (E14-16) mouse cortical and hippocampal structures were prepared on poly-L-lysine-coated 35 mm "FALCON" dishes according to G. Skeen et al., 44 Molec. Pharmacol. 443 (1993), hereby incorporated by reference. Cultures were fed every other day using a growth medium consisting of DMEM, 10% horse serum, 30 mM glucose, and 0.5 mM glutamine. Arabinosylcytosine (ARA-C) was added for 1 day during the first week in culture to suppress growth of non-neuronal cells. Electrophysiological experiments were performed on 2-5 week old cultures at room temperature. External solution consisted of 145 mM NaCl, 1.5 mM KCl, 1 mM CaCl2, 1 mM MgCl2, 10 mM Na-HEPES, 10 mM glucose, 30 mM sucrose at pH 7.4, 320 mOsm. Internal solution consisted of 153 mM CsCl, 10 mM Cs-HEPES, 4 mM MgCl2, 5 mM EGTA at pH 7.35, 300 mOsm. Solutions were designed for measurement of predominantly sodium inward currents and to block NMDA receptor currents when neurons are voltage clamped at -75 mV. […] To block other currents, 0.2-1 μM tetrodotoxin (TTX), 10 μM picrotoxin, 10 nM strychnine were added to the external solution. External solution was perfused continuously at about 2 ml/min. […]

[3] = tested on: glutamate receptors, fetal mouse cortical neurons in culture; test: Whole cell currents evoked in voltage-clamped neurons in culture; settings: 100 μM NMDA with 1 μM glycine, -75 mV, 1 mM MgCl2
Protocol: To examine functional consequences of antibody binding to glutamate receptors, electrophysiological methods were used to record whole cell currents from mouse cortical neurons in culture. Neuronal cultures from fetal (E14-16) mouse cortical and hippocampal structures were prepared on poly-L-lysine-coated 35 mm "FALCON" dishes according to G. Skeen et al., 44 Molec. Pharmacol. 443 (1993), hereby incorporated by reference. Cultures were fed every other day using a growth medium consisting of DMEM, 10% horse serum, 30 mM glucose, and 0.5 mM glutamine. Arabinosylcytosine (ARA-C) was added for 1 day during the first week in culture to suppress growth of non-neuronal cells. Electrophysiological experiments were performed on 2-5 week old cultures at room temperature. External solution consisted of 145 mM NaCl, 1.5 mM KCl, 1 mM CaCl2, 1 mM MgCl2, 10 mM Na-HEPES, 10 mM glucose, 30 mM sucrose at pH 7.4, 320 mOsm. Internal solution consisted of 153 mM CsCl, 10 mM Cs-HEPES, 4 mM MgCl2, 5 mM EGTA at pH 7.35, 300 mOsm. Solutions were designed for measurement of predominantly sodium inward currents and to block NMDA receptor currents when neurons are voltage clamped at -75 mV. […]
Currently, the composition of native GluR's and GABAR's is unknown and the potential diversity of native receptors is immense. […] Five cells are recorded for each paradigm and antibody. […]

Row | Compound | blockage of anti-GluR3 antibody-evoked currents [1] | Antibody-evoked currents reduced to % of control ([1]; 40 μM, rabbit serum 1:8, 6 cells) | blockage of currents evoked by serum from a Rasmussen's encephalitis patient [2] | current evoked by NMDA [3]
1 | C[C@]12N[C@H](Cc3ccccc31)c1ccccc12 [MK-801, reference compound] | had no effect |  |  | 
2 | N#Cc1cc2c(cc1[N+](=O)[O-])=NC(=O)C(=O)N=2 [CNQX, 6-cyano-7-nitro-quinoxaline-2,3-dione, reference compound] | rapid, reversible, and voltage independent | 4±20 % of control |  | 
3 | GluR3A: synthetic peptide, amino acids 245-274 of GluR3 (SEQ ID NO:1) (NNENPMVQQFIQRWVRLDEREFPEAKNAP) | did not block antibody-evoked currents |  | does not | 
4 | CN[C@H](CC(=O)O)C(=O)O [NMDA, N-methyl-D-aspartate] |  |  |  | No current was evoked

Source: US6010854A, “Autoantibodies to neurotransmitter receptors” (University of Utah Research Foundation, priority 1997, dated 2000)
